Each block holds one molecule with its values, some of them ahead of it.
Tests used:
rat mesangial cells [1] = test: Proline incorporation assay: reduction of TGF-beta 1 stimulated proline incorporation; assay type: cell-based; settings: Mesangial cell, 44 h, TGF-beta 1 5 ng/mL, read-out: Percentage Reduction of TGF-Beta 1 Stimulated Proline Incorporation; for inhibition at 10 µM: 10 μM compound; for inhibition at 30 µM: 30 μM compound; for inhibition at 100 µM: 100 μM compound
Protocol: (§1) A well-characterised cloned rat mesangial cell line (Kakizaki Y, Kraft N, Atkins R C: Differential control of mesangial cell proliferation by interferon-gamma. Clin Exp Immunol 85:157-163, 1991) was cultured in DMEM (5 mM glucose) with 5% FBS, 100U/mL penicillin, and 100 ug/mL streptomycin in humidified 5% CO2 atmosphere at 37 C. Cells were used up to passage 40.
Proline Incorporation Assay
(§2) Cells were plated into 24-well culture dishes in DMEM/5% FBS and allowed to adhere overnight. The subconfluent cells were then starved overnight in DMEM/0.1% FBS and 150 uM L-ascorbic acid, prior to pre-treatment with or without FibroTech compounds for 4 hours at 10, 30 or 100 uM in 0.1% DMSO, final concentration. TGF-beta 1 at 5 ng/mL (Peprotech) and tritiated proline (Perkin-Elmer, (2,3,4,5-^3H)-proline) at 1 uCi/mL were added and the incubation continued for a further 44 hours. Treatments were performed in triplicate.
After the incubation, cells were placed on ice and washed three times with ice cold PBS. They were then incubated on ice with 10% TCA for 30 minutes, followed by a final wash in cold 10% TCA. The cells were solubilized in 0.75 mL of 1M NaOH at 37 C for 45 minutes, or overnight at 4 C. Aliquots of the solubilized cells were neutralized in an equal amount of 1M HCl and counted in scintillant in a beta counter. Aliquots of neutralized solubilized cells were assayed for protein using the BioRad Bradford Protein Assay. Proline incorporation was normalized for protein content (cpm ^3H-proline incorporated per ug protein).
In order to compare the results of experiments performed on different days, the percentage inhibition of proline incorporation was calculated for each treatment by setting the TGF treatment at 0% inhibition and the control (incubation with media alone) at 100% inhibition.
Percentage Reduction of TGF-Beta 1 Stimulated Proline Incorporation: […]

rat mesangial cells [2] = test: Toxicity rank and cell condition observed in the proline incorporation assay; assay type: cell-based; set-up: key to Tox. Rank (4 = non-toxic): (4 = non-toxic); settings: for Cell condition observed (sick, dead): 30 μM; for Cell condition observed (sick, dead, some death, cells elongated): 100 μM
Protocol: as §1, §2

[3] = Compound precipitation observed during the proline incorporation assay; assay type: physicochemical; set-up: key: ppt indicates compound precipitated during assay
Protocol: as §2

melting point: 276 to 279 °C
Compound: COc1ccc(/C=C/C2=NS(=O)(=O)c3ccccc3N2)cc1OC [FT98, (E)-3-[2-(3,4-Dimethoxyphenyl)ethenyl]-4H-1,2,4-benzothiadiazine-1,1-dioxide]
inhibition at 10 µM (rat mesangial cells [1]): 30%
inhibition at 30 µM (rat mesangial cells [1]): 70%
inhibition at 100 µM (rat mesangial cells [1]): 70%
Tox. Rank (4 = non-toxic) (rat mesangial cells [2]; no concentration stated): 4

melting point: 228 to 231 °C
Compound precipitated during assay ([3]; 100 μM in 0.1% DMSO): ppt
Compound: COc1ccc(/C=C/c2nc3ncccc3c(=O)o2)cc1OC [FT102, (E)-2-(3,4-Dimethoxystyryl)-4H-pyrido[2,3-d][1,3]oxazin-4-one]
inhibition at 10 µM (rat mesangial cells [1]): 0%
inhibition at 30 µM (rat mesangial cells [1]): 0%
inhibition at 100 µM (rat mesangial cells [1]): 10%
Tox. Rank (4 = non-toxic) (rat mesangial cells [2]; no concentration stated): 4

Compound: COc1ccc(/C=C/c2nc3ccccc3c(=O)o2)cc1OC [FT106, (E)-2-(3,4-Dimethoxystyryl)-4H-benzo[d][1,3]oxazin-4-one]
inhibition at 10 µM (rat mesangial cells [1]): 0%
inhibition at 30 µM (rat mesangial cells [1]): 0%
Cell condition observed (sick, dead) (rat mesangial cells [2]): sick
Cell condition observed (sick, dead, some death, cells elongated) (rat mesangial cells [2]): dead
Tox. Rank (4 = non-toxic) (rat mesangial cells [2]; @30 uM): 2@30 uM
Tox. Rank (4 = non-toxic) (rat mesangial cells [2]; @100 uM): 1@100 uM

melting point: 177 to 178 °C
Compound precipitated during assay ([3]; 100 μM in 0.1% DMSO): ppt
Compound: C#CCOc1ccc(/C=C/c2nc3ccccc3c(=O)o2)cc1OC [FT107, (E)-2-(3-Methoxy-4-propargyloxystyryl)-4H-benzo[d][1,3]oxazin-4-one]
inhibition at 10 µM (rat mesangial cells [1]): 0%
inhibition at 30 µM (rat mesangial cells [1]): 0%
inhibition at 100 µM (rat mesangial cells [1]): 0%
Tox. Rank (4 = non-toxic) (rat mesangial cells [2]; no concentration stated): 4

melting point: 113 to 115 °C
Compound: O=c1oc(/C=C/c2ccc(OC(F)F)c(OC(F)F)c2)nc2ccccc12 [FT108, (E)-2-(3,4-Bis(difluoromethoxy)styryl)-4H-benzo[d][1,3]oxazin-4-one]
inhibition at 10 µM (rat mesangial cells [1]): 75%
inhibition at 30 µM (rat mesangial cells [1]): 95%
inhibition at 100 µM (rat mesangial cells [1]): > 100%
Tox. Rank (4 = non-toxic) (rat mesangial cells [2]; no concentration stated): 4

Compound: COc1cc(/C=C/c2nc3ccccc3c(=O)o2)ccc1OC(C)=O [FT109, (E)-2-(4-Acetoxy-3-methoxystyryl)-4H-benzo[d][1,3]oxazin-4-one]
inhibition at 10 µM (rat mesangial cells [1]): 3%
inhibition at 30 µM (rat mesangial cells [1]): 16%
inhibition at 100 µM (rat mesangial cells [1]): 75%
Tox. Rank (4 = non-toxic) (rat mesangial cells [2]; no concentration stated): 4
melting point: 185 to 186 °C
Compound precipitated during assay ([3]; 100 μM in 0.1% DMSO): ppt

Compound: COc1ccc(/C=C/c2nc3ccccc3c(=O)o2)cc1OC(C)=O [FT110, (E)-2-(3-Acetoxy-4-methoxystyryl)-4H-benzo[d][1,3]oxazin-4-one]
inhibition at 10 µM (rat mesangial cells [1]): 0%
inhibition at 30 µM (rat mesangial cells [1]): 0%
inhibition at 100 µM (rat mesangial cells [1]): 0%
Cell condition observed (sick, dead, some death, cells elongated) (rat mesangial cells [2]): (cells elongated)
Tox. Rank (4 = non-toxic) (rat mesangial cells [2]; @100 uM): 3@100 uM
Compound precipitated during assay ([3]; 100 μM in 0.1% DMSO): ppt

melting point: 118 to 120 °C
Compound: COc1ccc(/C=C/C(=O)N2CCc3ccccc32)cc1OC [FT113, (E)-3-(3,4-dimethoxyphenyl)-1-(indolin-1-yl)prop-2-en-1-one]
inhibition at 10 µM (rat mesangial cells [1]): 20%
inhibition at 30 µM (rat mesangial cells [1]): 67%
inhibition at 100 µM (rat mesangial cells [1]): 44%
Tox. Rank (4 = non-toxic) (rat mesangial cells [2]; no concentration stated): 4

Compound: COc1ccc(/C=C/c2nc3ccccc3[nH]2)cc1OC [FT121, (E)-2-(3,4-Dimethoxystyryl)-1H-benzo[d]imidazole]
inhibition at 10 µM (rat mesangial cells [1]): ~60%
inhibition at 30 µM (rat mesangial cells [1]): > 100%
Cell condition observed (sick, dead, some death, cells elongated) (rat mesangial cells [2]): dead
Tox. Rank (4 = non-toxic) (rat mesangial cells [2]; @30 uM): 3@30 uM
Tox. Rank (4 = non-toxic) (rat mesangial cells [2]; @100 uM): 1@100 uM

Compound: COc1ccc(/C=C/C(=O)N2CCOc3ccccc32)cc1OC [FT122, (E)-1-(2,3-Dihydrobenzo[b][1,4]oxazin-4-yl)-3-(3,4-dimethoxyphenyl)prop-2-en-1-one]
inhibition at 10 µM (rat mesangial cells [1]): ~25%
inhibition at 30 µM (rat mesangial cells [1]): ~80%
Cell condition observed (sick, dead, some death, cells elongated) (rat mesangial cells [2]): dead
Tox. Rank (4 = non-toxic) (rat mesangial cells [2]; @30 uM): 4@30 uM
Tox. Rank (4 = non-toxic) (rat mesangial cells [2]; @100 uM): 1@100 uM

Compound: COc1ccc(/C=C/C(=O)n2c(=O)n(C)c3ccccc32)cc1OC [FT123, (E)-1-(3-(3,4-Dimethoxyphenyl)acryloyl)-3-methyl-1H-benzo[d]imidazol-2(3H)-one]
inhibition at 10 µM (rat mesangial cells [1]): 0%
inhibition at 30 µM (rat mesangial cells [1]): 0%
inhibition at 100 µM (rat mesangial cells [1]): 0%
Cell condition observed (sick, dead) (rat mesangial cells [2]): sick
Cell condition observed (sick, dead, some death, cells elongated) (rat mesangial cells [2]): dead
Tox. Rank (4 = non-toxic) (rat mesangial cells [2]; no concentration stated): 1 to 2
Compound precipitated during assay ([3]; 30 μM in 0.1% DMSO): ppt
Compound precipitated during assay ([3]; 100 μM in 0.1% DMSO): ppt

Compound: COc1ccc(/C=C/C(=O)n2c(=O)oc3ccccc32)cc1OC [FT124, (E)-3-(3-(3,4-Dimethoxyphenyl)acryloyl)benzo[d]oxazol-2(3H)-one]
inhibition at 10 µM (rat mesangial cells [1]): 0%
inhibition at 30 µM (rat mesangial cells [1]): 0%
inhibition at 100 µM (rat mesangial cells [1]): 0%
Cell condition observed (sick, dead) (rat mesangial cells [2]): sick
Cell condition observed (sick, dead, some death, cells elongated) (rat mesangial cells [2]): sick
Tox. Rank (4 = non-toxic) (rat mesangial cells [2]; no concentration stated): 2
Compound precipitated during assay ([3]; 10 μM in 0.1% DMSO): ppt
Compound precipitated during assay ([3]; 30 μM in 0.1% DMSO): ppt
Compound precipitated during assay ([3]; 100 μM in 0.1% DMSO): ppt

Compound: COc1ccc(/C=C/C(=O)N2CC(=O)Nc3ccccc32)cc1OC [FT125, (E)-4-(3-(3,4-Dimethoxyphenyl)acryloyl)-3,4-dihydroquinoxalin-2(1H)-one]
inhibition at 10 µM (rat mesangial cells [1]): 0%
inhibition at 30 µM (rat mesangial cells [1]): 0%
inhibition at 100 µM (rat mesangial cells [1]): 0%
Cell condition observed (sick, dead) (rat mesangial cells [2]): sick
Cell condition observed (sick, dead, some death, cells elongated) (rat mesangial cells [2]): sick
Tox. Rank (4 = non-toxic) (rat mesangial cells [2]; no concentration stated): 2

Compound: COc1cc2c(cc1OC)CC(C(=O)Nc1ccccc1C(=O)O)=C2 [FT126, 2-(5,6-Dimethoxy-1H-indene-2-carboxamido)benzoic acid]
inhibition at 10 µM (rat mesangial cells [1]): ~55%
inhibition at 30 µM (rat mesangial cells [1]): ~75%
inhibition at 100 µM (rat mesangial cells [1]): ~100%
Tox. Rank (4 = non-toxic) (rat mesangial cells [2]; no concentration stated): 4

Compound: COc1cc2nc(C(=O)Nc3ccccc3C(=O)O)[nH]c2cc1OC [FT127, 2-(5,6-Dimethoxy-1H-benzo[d]imidazole-2-carboxamido)benzoic acid]
inhibition at 10 µM (rat mesangial cells [1]): 0%
inhibition at 30 µM (rat mesangial cells [1]): 0%
inhibition at 100 µM (rat mesangial cells [1]): ~50%
Tox. Rank (4 = non-toxic) (rat mesangial cells [2]; no concentration stated): 4

Compound: COc1cc2c(cc1OC)S(=O)(=O)C(C(=O)Nc1ccccc1C(=O)O)=C2 [FT128, 2-(1,1-Dioxo-5,6-dimethoxybenzo[b]thiophene-2-carboxamido)benzoic acid]
inhibition at 10 µM (rat mesangial cells [1]): ~20%
inhibition at 30 µM (rat mesangial cells [1]): ~20%
inhibition at 100 µM (rat mesangial cells [1]): ~40%
Cell condition observed (sick, dead, some death, cells elongated) (rat mesangial cells [2]): (some death)
Tox. Rank (4 = non-toxic) (rat mesangial cells [2]; @100 uM): 3@100 uM

Compound: COc1cc2c(cc1OC)CCC(C(=O)Nc1ccccc1C(=O)O)=C2 [FT129, 2-(6,7-Dimethoxy-1,2-dihydronaphthalene-3-carboxamido)benzoic acid]
inhibition at 10 µM (rat mesangial cells [1]): ~10%
inhibition at 30 µM (rat mesangial cells [1]): ~75%
Cell condition observed (sick, dead, some death, cells elongated) (rat mesangial cells [2]): dead
Tox. Rank (4 = non-toxic) (rat mesangial cells [2]; @30 uM): 2@30 uM
Tox. Rank (4 = non-toxic) (rat mesangial cells [2]; @100 uM): 1@100 uM

Compound: COc1cc2c(cc1OC)CC(C(=O)Nc1ccccc1C(=O)O)CC2 (stereo not drawn) [FT130, 2-(6,7-Dimethoxy-1,2,3,4-tetrahydronaphthalene-3-carboxamido)benzoic acid]
inhibition at 10 µM (rat mesangial cells [1]): ~10%
inhibition at 30 µM (rat mesangial cells [1]): ~30%
inhibition at 100 µM (rat mesangial cells [1]): ~50%
Tox. Rank (4 = non-toxic) (rat mesangial cells [2]; @100 uM): 2@100 uM

Compound: COc1cc2c(cc1OC)/C(=C/C(=O)Nc1ccccc1C(=O)O)CNC2=O [FT131, (Z)-2-(2-(6,7-Dimethoxy-1-oxo-2,3-dihydroisoquinolin-4(1H)-ylidene)acetamido)benzoic acid]
inhibition at 10 µM (rat mesangial cells [1]): ~20%
inhibition at 30 µM (rat mesangial cells [1]): ~10%
inhibition at 100 µM (rat mesangial cells [1]): ~10%
Tox. Rank (4 = non-toxic) (rat mesangial cells [2]; no concentration stated): 4

Compound: COc1ccc(/C=C/c2nc3c(C(=O)O)cccc3o2)cc1OC [FT132, (E)-2-(3,4-Dimethoxystyryl)benzo[d]oxazole-4-carboxylic acid]
inhibition at 10 µM (rat mesangial cells [1]): ~2%
inhibition at 30 µM (rat mesangial cells [1]): ~75%
inhibition at 100 µM (rat mesangial cells [1]): ~75%
Cell condition observed (sick, dead, some death, cells elongated) (rat mesangial cells [2]): (some death)
Tox. Rank (4 = non-toxic) (rat mesangial cells [2]; @100 uM): 3@100 uM
Compound precipitated during assay ([3]; 30 μM in 0.1% DMSO): ppt
Compound precipitated during assay ([3]; 100 μM in 0.1% DMSO): ppt
